According to patent publication US20090185973A1, “METHODS, COMPOSITIONS, UNIT DOSAGE FORMS, AND KITS FOR PHARMACOLOGIC STRESS TESTING WITH REDUCED SIDE EFFECTS” (ADENOBIO N.V., priority 2008, published 2009):
Where “and” joins values, the source holds several entries; their conditions need not be identical. Equal entries are not always repeated. Where two headings read alike, the source gives them in different places.

Legend:
coronary patients = experiment: Tolerance, severity of main symptoms (Example 3); assay type: in vivo, human
From the text: Primary efficacy end-points were peak and mean diastolic flow velocities (their measurements reflect coronary blood flow values). The secondary end-point was patient's tolerance to the procedure.

patients [1] = conditions: most frequently reported adverse effects with adenosine; cited from earlier work
patients [2] = experiment: Priming dose effect with the sequential administration mode (Example 5); assay type: in vivo, human; conditions: N = 10
From the text: Again there was no difference between the two methods for both peak and mean velocities.

patients [3] = assay type: in vivo, human
[4] = system: patients suffering from ischemic heart disease; experiment: Transthoracic doppler echocardiography (TTDE) blood flow velocity in LAD, sequential administration (Example 1); assay type: in vivo, human; conditions: mean; for Mean velocity Min / Peak velocity Min: at rest (basal); for Mean velocity Max / Peak velocity Max: under stress
Procedure: In the combined administration, each of the two agents was administered at a dosage lower than its clinically preferred dosage when used as a single agent for myocardial perfusion imaging. Effects were measured using noninvasive transthoracic doppler echocardiography (TTDE).
Primary efficacy end-points were peak and mean diastolic flow velocities (measured as reflecting coronary blood flow values). The secondary end-point was patient tolerance to the procedure. The protocol was designed as follows.
Forty (40) consecutive patients suffering from ischemic heart disease were enrolled. Each patient served as their own control.
[…] Total doses are between about 4-6% of the lowest single-agent total dose of dipyridamole (i.e., 0.56 mg/kg, infused over a total of 4 minutes).
This dose is half the standard single-agent dosage rate of 140 μg/kg/min.

[5] = system: patients suffering from ischemic heart disease; experiment: Tolerance: occurrence and severity of adverse events (Example 1); assay type: in vivo, human
From the text: Cumulative results on the severity of the three subjective symptoms of the composite (chest pain, dyspnea, flushing) rated from 0 to 30. Cumulative results on the severity of the three subjective symptoms of the composite (chest pain, dyspnea, flushing) rated from 0 to 30.

[6] = adenosine 70 μg/kg/min + dipyridamole 10 μg/kg/min vs adenosine 140 μg/kg/min, 2 min
[7] = DIP dose 28 μg/kg, ADE 140 μg/kg/min
[8] = DIP dose 35 μg/kg, ADE 140 μg/kg/min, listed as ADE
[9] = DIP dose 40 μg/kg, ADE 140 μg/kg/min, listed as ADE
[10] = before infusion, DIP5: SC = dipyridamole 28 μg/kg + adenosine 70 μg/kg/min, ADE = adenosine 140 μg/kg/min, 30 patients
[11] = DIP4: SC = dipyridamole 35 μg/kg + adenosine 70 μg/kg/min, ADE = adenosine 140 μg/kg/min, 5 patients
[12] = DIP6: SC = dipyridamole 23 μg/kg + adenosine 70 μg/kg/min, ADE = adenosine 140 μg/kg/min, 5 patients
[13] = DIP4: SC = dipyridamole 35 μg/kg IV bolus then adenosine 70 μg/kg/min, ADE = adenosine alone 140 μg/kg/min, 5 patients
[14] = DIP5: SC = dipyridamole 28 μg/kg IV bolus then adenosine 70 μg/kg/min 3 min, ADE = adenosine alone 140 μg/kg/min 3 min, 30 patients
[15] = DIP6: SC = dipyridamole 23 μg/kg IV bolus then adenosine 70 μg/kg/min, ADE = adenosine alone 140 μg/kg/min, 5 patients
[16] = cumulated, all 40 patients: SC = dipyridamole 23, 28 or 35 μg/kg bolus then adenosine 70 μg/kg/min, ADE = adenosine alone 140 μg/kg/min
[17] = DIP4 (n = 5), dipyridamole 35 μg/kg
[18] = DIP5 (n = 30), dipyridamole 28 μg/kg
[19] = DIP6 (n = 5), dipyridamole 23 μg/kg

## Nc1ncnc2c1ncn2[C@@H]1O[C@H](CO)[C@@H](O)[C@H]1O [adenosine]
Coronary patients; Example 3 series
  Patients who experienced thoracic discomfort: 4 patients
Coronary patients; [6]
  Severity of chest pain: 0.68 ± 1.87
  Severity of dyspnea: 3.64 ± 3.67
  Severity of flushing: 4.50 ± 3.15
Patients [1]
  Frequency of chest pain or chest discomfort: 40%
  Frequency of gastrointestinal discomfort: 13%
  Frequency of throat or neck or jaw discomfort: 15%
Patients [2]; ADE 140 μg/kg/min vs C sequential (Dip 40 μg/kg + Ade 70 μg/kg/min), listed as ADE
  Return to BL, individual patients: 30 seconds (2×) and 60 seconds (3×) and 50 seconds and 35 seconds (2×) and 40 seconds and 28 seconds
Patients [2]; ADE 140 μg/kg/min vs C sequential (Dip 40 μg/kg bolus + Ade 70 μg/kg/min over 2 minutes), listed as ADE
  Time to peak, individual patients: 70 seconds and 50 seconds (2×) and 75 seconds and 60 seconds (2×) and 35 seconds and 38 seconds and 90 seconds and 40 seconds
Patients [2]; sequential administration
  Return to BL, Mean: 43 s
  Return to BL, Total: 428 s
  Time to peak, Mean: 57 s
  Time to peak, Total: 568 s
Patients [3]; DIP dose 28 μg/kg bolus alone, ADE 140 μg/kg/min 3 min
  PV Max, individual patient: 84 cm/sec
Patients [3]; [7]
  MV Max, individual patient: 64 cm/s
  MV Min, individual patient: 20 cm/s
  PV Min, individual patient: 27 cm/sec
Patients [3]; DIP dose 35 μg/kg bolus alone, ADE 140 μg/kg/min 3 min, listed as ADE
  PV Max, individual patients: 88 cm/sec and 84 cm/sec
Patients [3]; [8]
  MV Max, individual patients: 71 cm/s and 61 cm/s
  MV Min, individual patients: 21 cm/s and 23 cm/s
  PV Min, individual patients: 25 cm/sec and 32 cm/sec
Patients [3]; DIP dose 40 μg/kg bolus alone, ADE 140 μg/kg/min 3 min, listed as ADE
  PV Max, individual patients: 92 cm/sec and 112 cm/sec
Patients [3]; DIP dose 40 μg/kg, ADE 140 μg/kg/min
  PV Min, individual patients: 33 cm/sec
Patients [3]; [9]
  MV Max, individual patients: 67 cm/s and 86 cm/s
  MV Min, individual patients: 23 cm/s and 25 cm/s
[4]; [10]
  Mean velocity Min: 23.1 cm/s
  Peak velocity Min: 30.6 cm/sec
[4]; [11]
  Mean velocity Min: 22.2 cm/s
  Peak velocity Min: 28 cm/sec
[4]; [12]
  Mean velocity Min: 28.2 cm/s
  Peak velocity Min: 37.6 cm/sec
[4]; cumulated, all 40 patients
  Mean velocity Min: 23.7 cm/s
  Peak velocity Min: 31.2 cm/sec
[4]; [13]
  Mean velocity Max: 60.4 cm/s
  Peak velocity Max: 80 cm/sec
[4]; [14]
  Mean velocity Max: 61.4 cm/s
  Peak velocity Max: 82.6 cm/sec
[4]; [15]
  Mean velocity Max: 80.2 cm/s
  Peak velocity Max: 107 cm/sec
[4]; [16]
  Mean velocity Max: 63.6 cm/s
  Peak velocity Max: 85.3 cm/sec
[5]; [17]
  Severity of dyspnea: 1.4 ± 1.95
  Severity of flushing: 2.9 ± 2.88
[5]; DIP4 (n = 5): SC dipyridamole 35 μg/kg + adenosine 70 μg/kg/min vs adenosine alone 140 μg/kg/min
  Severity of chest pain: 1.2 ± 2.68
[5]; [18]
  Severity of dyspnea: 2.33 ± 2.59
  Severity of flushing: 2.35 ± 2.53
[5]; DIP5 (n = 30): SC dipyridamole 28 μg/kg + adenosine 70 μg/kg/min vs adenosine alone 140 μg/kg/min
  Severity of chest pain: 1.12 ± 1.95
[5]; [19]
  Severity of dyspnea: 5 ± 3.08
  Severity of flushing: 3.2 ± 3.42
